Reference: US20210147455A1 (SHAANXI SYNTHETIC PHARMACEUTICAL CO., LTD., priority 2018, published 2021)

Columns and labels:
[1] = Hygroscopicity study (Chinese Pharmacopoeia 2015, 9103); assay type: physicochemical; conditions: for Hygroscopic weight gain: 25° C.±1° C., saturated ammonium chloride solution, 24 hours; for Conclusion (hygroscopicity): after 24 hours
Description: Test method: • 1. A dried glass weighing bottle with stopper (having an outer diameter of 50 mm and a height of 15 mm) was placed in a thermostatic drier (a saturated ammonium chloride solution was placed on the lower part of the thermostatic drier) at an appropriate temperature of 25° C.±1° C. on the day earlier before the test, and the weight (m1) of weighing bottle was precisely weighed. • 2. An appropriate amount of test sample was taken and spread in the weighing bottle, and the thickness of the test sample was controlled to about 1 mm, and the weight (m2) was precisely weighed. • 3. The weighing bottle was opened and was placed, together with the bottle cap, under the above mentioned constant temperature and humidity condition for 24 hours. • 4. The weighing bottle was capped and precisely weighed to obtain the weight (m3).
Description of hygroscopicity characterization and delimitation of hygroscopicity weight gain: Deliquescence: enough moisture is absorbed to form a liquid. […] Slightly hygroscopic: hygroscopic weight gain is less than 2% but not less than 0.2%. Not or hardly hygroscopic: hygroscopic weight gain is less than 0.2%.

[2] = Stability experiments under 25° C.±2° C. and 65% R.H±5% R.H; conditions: 25° C./65% R.H
Description: • 1. […] The results are shown in detail in the following table.

[3] = Stability experiments under 40° C.±2° C. and 75% R.H±5% R.H (accelerated test); assay type: physicochemical; conditions: 40° C./75% R.H

## CC[C@@H]([C@H](C)OP(=O)([O-])[O-])n1ncn(-c2ccc(N3CCN(c4ccc(OC[C@@H]5CO[C@@](Cn6cncn6)(c6ccc(F)cc6F)C5)cc4)CC3)cc2)c1=O.C[N+](C)(C)CCO.C[N+](C)(C)CCO [Comparative Example 1, Posaconazole Phosphate Bicholinate]
[1]
  Hygroscopic weight gain: 8.76%
[2]; month 0
  Content: 99.87%
  Description: White
  Related substance: 0.13%
[2]; month 3
  Content: 99.86%
  Description: White
  Related substance: 0.14%
[2]; month 6
  Content: 99.81%
  Description: White
  Related substance: 0.19%
[2]; month 9
  Content: 99.77%
  Description: White
  Related substance: 0.23%
[2]; month 12
  Content: 99.61%
  Description: White
  Related substance: 0.31%
[2]; month 24
  Content: 99.22%
  Description: White
  Related substance: 0.78%
[3]; month 0
  Content: 99.87%
  Description: White
  Related substance: 0.13%
[3]; month 1
  Content: 99.86%
  Description: White
  Related substance: 0.14%
[3]; month 2
  Content: 99.84%
  Description: White
  Related substance: 0.16%
[3]; month 3
  Content: 99.80%
  Description: White
  Related substance: 0.20%
[3]; month 6
  Content: 99.65%
  Description: White
  Related substance: 0.35%

## CCC(C(C)OP(=O)([O-])[O-])n1ncn(-c2ccc(N3CCN(c4ccc(OCC5COC(Cn6cncn6)(c6ccc(F)cc6F)C5)cc4)CC3)cc2)c1=O.C[N+](C)(C)CCO.C[N+](C)(C)CCO.O.O.O.O.O (stereo not shown) [Comparative Example 2, Posaconazole Phosphate Bicholinate Pentahydrate]
[1]
  Hygroscopic weight gain: 11.81%
[2]; month 0
  Content: 99.87%
  Description: White
  Related substance: 0.13%
[2]; month 3
  Content: 99.86%
  Description: White
  Related substance: 0.14%
[2]; month 6
  Content: 99.81%
  Description: White
  Related substance: 0.19%
[2]; month 9
  Content: 99.75%
  Description: White
  Related substance: 0.25%
[2]; month 12
  Content: 99.71%
  Description: White
  Related substance: 0.29%
[2]; month 24
  Content: 99.18%
  Description: White
  Related substance: 0.82%
[3]; month 0
  Content: 99.87%
  Description: White
  Related substance: 0.13%
[3]; month 1
  Content: 99.86%
  Description: White
  Related substance: 0.14%
[3]; month 2
  Content: 99.85%
  Description: White
  Related substance: 0.16%
[3]; month 3
  Content: 99.79%
  Description: White
  Related substance: 0.21%
[3]; month 6
  Content: 99.64%
  Description: White
  Related substance: 0.36%

## CC[C@@H]([C@H](C)OP(=O)(O)O)n1ncn(-c2ccc(N3CCN(c4ccc(OC[C@@H]5CO[C@@](Cn6cncn6)(c6ccc(F)cc6F)C5)cc4)CC3)cc2)c1=O.CNC[C@H](O)[C@@H](O)[C@H](O)[C@H](O)CO [Comparative Example 4, Posaconazole Phosphate Monomeglumine Salt]
[1]
  Hygroscopic weight gain: 0.88%
  Conclusion (hygroscopicity): Slight hygroscopicity
[2]; month 0
  Content: 99.87%
  Description: White
  Related substance: 0.13%
[2]; month 3
  Content: 99.81%
  Description: White
  Related substance: 0.19%
[2]; month 6
  Content: 99.69%
  Description: White
  Related substance: 0.31%
[2]; month 9
  Content: 99.57%
  Description: White
  Related substance: 0.43%
[2]; month 12
  Content: 99.50%
  Description: White
  Related substance: 0.50%
[2]; month 24
  Content: 98.98%
  Description: White
  Related substance: 1.02%
[3]; month 0
  Content: 99.87%
  Description: White
  Related substance: 0.13%
[3]; month 1
  Content: 99.73%
  Description: White
  Related substance: 0.27%
[3]; month 2
  Content: 99.62%
  Description: White
  Related substance: 0.38%
[3]; month 3
  Content: 99.50%
  Description: White
  Related substance: 0.50%
[3]; month 6
  Content: 99.36%
  Description: White
  Related substance: 0.64%

## CC[C@@H]([C@H](C)OP(=O)(O)O)n1ncn(-c2ccc(N3CCN(c4ccc(OC[C@@H]5CO[C@@](Cn6cncn6)(c6ccc(F)cc6F)C5)cc4)CC3)cc2)c1=O.N=C(N)NCCC[C@H](N)C(=O)O [Comparative Example 5, Posaconazole Phosphate Monoarginine Salt]
[1]
  Hygroscopic weight gain: 1.02%
  Conclusion (hygroscopicity): Slight hygroscopicity
[2]; month 0
  Content: 99.87%
  Description: White
  Related substance: 0.13%
[2]; month 3
  Content: 99.79%
  Description: White
  Related substance: 0.21%
[2]; month 6
  Content: 99.71%
  Description: White
  Related substance: 0.29%
[2]; month 9
  Content: 99.58%
  Description: White
  Related substance: 0.42%
[2]; month 12
  Content: 99.49%
  Description: White
  Related substance: 0.51%
[2]; month 24
  Content: 99.03%
  Description: White
  Related substance: 0.97%
[3]; month 0
  Content: 99.87%
  Description: White
  Related substance: 0.13%
[3]; month 1
  Content: 99.72%
  Description: White
  Related substance: 0.28%
[3]; month 2
  Content: 99.60%
  Description: White
  Related substance: 0.40%
[3]; month 3
  Content: 99.50%
  Description: White
  Related substance: 0.50%
[3]; month 6
  Content: 99.37%
  Description: White
  Related substance: 0.63%

## CC[C@@H]([C@H](C)OP(=O)([O-])[O-])n1ncn(-c2ccc(N3CCN(c4ccc(OC[C@@H]5CO[C@@](Cn6cncn6)(c6ccc(F)cc6F)C5)cc4)CC3)cc2)c1=O.O.O.O.O.O.[Na+].[Na+] [Comparative Example 9, Posaconazole Phosphate Disodium Salt Pentahydrate]
[1]
  Hygroscopic weight gain: 12.01%
[2]; month 0
  Content: 99.87%
  Description: White
  Related substance: 0.13%
[2]; month 3
  Content: 99.73%
  Description: White
  Related substance: 0.27%
[2]; month 6
  Content: 99.68%
  Description: White
  Related substance: 0.32%
[2]; month 9
  Content: 99.51%
  Description: White
  Related substance: 0.49%
[2]; month 12
  Content: 99.41%
  Description: White
  Related substance: 0.59%
[2]; month 24
  Content: 98.87%
  Description: White
  Related substance: 1.13%
[3]; month 0
  Content: 99.87%
  Description: White
  Related substance: 0.13%
[3]; month 1
  Content: 99.72%
  Description: White
  Related substance: 0.28%
[3]; month 2
  Content: 99.62%
  Description: White
  Related substance: 0.38%
[3]; month 3
  Content: 99.45%
  Description: White
  Related substance: 0.55%
[3]; month 6
  Content: 99.32%
  Description: White
  Related substance: 0.68%

## Posaconazole Phosphate Disodium Salt [Comparative Example 10]
[1]
  Hygroscopic weight gain: 13.91%
[2]; month 0
  Content: 99.87%
  Description: White
  Related substance: 0.13%
[2]; month 3
  Content: 99.72%
  Description: White
  Related substance: 0.28%
[2]; month 6
  Content: 99.62%
  Description: White
  Related substance: 0.38%
[2]; month 9
  Content: 99.57%
  Description: White
  Related substance: 0.43%
[2]; month 12
  Content: 99.40%
  Description: White
  Related substance: 0.60%
[2]; month 24
  Content: 98.84%
  Description: White
  Related substance: 1.16%
[3]; month 0
  Content: 99.87%
  Description: White
  Related substance: 0.13%
[3]; month 1
  Content: 99.72%
  Description: White
  Related substance: 0.28%
[3]; month 2
  Content: 99.60%
  Description: White
  Related substance: 0.40%
[3]; month 3
  Content: 99.45%
  Description: White
  Related substance: 0.55%
[3]; month 6
  Content: 99.34%
  Description: White
  Related substance: 0.66%

## Posaconazole Phosphate Monosodium Salt [Comparative Example 8]
[1]
  Hygroscopic weight gain: 1.92%
  Conclusion (hygroscopicity): Slight hygroscopicity
[3]; month 0
  Content: 99.87%
  Description: White
  Related substance: 0.13%
[3]; month 1
  Content: 99.71%
  Description: White
  Related substance: 0.29%
[3]; month 2
  Content: 99,63%
  Description: White
  Related substance: 0.37%
[3]; month 3
  Content: 99.47%
  Description: White
  Related substance: 0.53%
[3]; month 6
  Content: 99.32%
  Description: White
  Related substance: 0.68%
